# Like-named read-outs stand apart in the source and are kept apart here.
# Assays:
# P388 cells = assay: Growth inhibition in vitro, P388 leukaemia; format: cell-based, murine; conditions: P388 cells, 72 h, MTT, read-out: IC50
# Description: (§1) Representative examples of compounds of the invention were tested for biological activity against tumors. Compounds 1 to 6 and 14 to 21, prepared as described above, were tested for their ability to inhibit growth in vitro of cells of the wild-type murine leukaemia cell line P388, and the cell line AA8 which is derived from Chinese hamster ovary cells. For each compound, the IC50, ie. the concentration of compound which inhibited cell growth in treated cultures to 50% of that of controls, was determined, using means of three determinations. In addition, a hypersensitivity factor was determined by comparing activity of the compounds against AA8 cells to activity against UV4. The latter cell line is deficient in aspects of the excision repair pathway for removing DNA adducts, and is hypersensitive to DNA-alkylating agents, especially interstrand crosslinking agents. Previous work has shown that the ratio of IC50 s determined in the wild-type AA8 and mutant UV4 lines (the hypersensitivity factor HF) is a determinant of the mode of cell killing by alkylating agents (Palmer, B. D. et al, J. Med. Chem., 1990 33 112-121; Wilson, W. R. et al, J. Med. Chem., 1989 32 31-38). Compounds with HFs of ca. 1 are unlikely to kill cells via DNA alkylation events. Compounds which show high HF values are likely to form bulky adducts or cross-links,with the latter being especially likely for compounds showing the highest HF values (>ca. 25) (Wilson et al, op. cit.).
# (§2) Cell lines were maintained in exponential growth phase by subculturing in RPMI 1640 (P338) or Alpha MEM (AA8, UV4) containing 10% fetal calf serum, as previously described (Palmer et al, op.cit.; Baguley, B. C. and Wilson, W. R., Eur. J. Cancer Clin. Oncol., 1987 23 607-613). IC50 values were determined using log-phase cultures in 96-well microculture plates, and were calculated as the nominal drug concentration required to reduce the cell density to 50% of control values, using 8 control cultures on each microplate. For P388 cultures, drug was present throughout the growth period (72 h), and final cell densities were determined using a minor modification of the MTT method of Mossman (Mossman, T., J. Immunol. Methods, 1983 65 55-63). For AA8 and UV4 cultures, drug exposure was terminated after 18 h by washing three times with fresh medium. Cultures were then grown for a further 72 h before determining cell density by staining with methylene blue (Finlay, G. J. et al, Anal. Biochem., 1984 139 272-277).
# linearized pSV2gpt DNA = assay: DNA crosslinking assay (agarose gel electrophoresis of linearized plasmid); format: biochemical; conditions: 2 h at 30° C., TE-80 buffer pH 8
# Description: The ability of representative compounds of the invention to bind to and cross-link DNA was examined. This was carried out by agarose gel electrophoresis of plasmid DNA using linearized pSV2gpt DNA (Tindall, K. R. and Stankowski, L. F.; Mutation Research, 1989 220 241-245) and the method reported by Valu et al, 1990, op.cit. Briefly, linearized pSV2gpt DNA (1 μL of a 1 mg/mL solution) was incubated with drug in TE-80 buffer (10 mM Tris.HCl, 1 mM EDTA at pH 8), shielded from ambient light, for 2 h at 30° C., then denatured by the addition of […] of 1% sodium dodecyl sulfate and 10 μL of 50 mM methylmercury hydroxide and incubated for a further 30 min at 20° C. in the dark. Renaturation of drug-treated DNA samples was carried out by incubation with 2.5 μL of 2-mercaptoethanol for 1 h. Samples were prepared for electrophoresis by the addition of 0.1 mg/mL bromophenol blue, 0.5 μg/mL ethidium bromide and 5 μL of 40% sucrose. Electrophoresis was carried out at 120V in 89 mM tris/borate buffer at pH 8 containing 2 mM EDTA and 0.5 μg/mL ethidium bromide. DNA was visualized using 302 nm trans-illumination, and was photographed using Polaroid type 55 film and a Wratten 3A filter.
# After drug treatment, DNA is denatured to the single stranded form, which runs as a lower band in the gels (see lanes 1 and 2 in FIG. 1). Cross-linking by the drugs is evidenced by the appearance of increasing amounts of renatured, double stranded DNA, as shown by the upper band in the gels, corresponding to the band for untreated DNA seen in lane 1.
# calf thymus DNA [1] = assay: Rate of alkylation of calf thymus DNA by increase in DNA-bound fluorescence; format: biochemical; design: unit not given here
# AA8 cells = assay: Growth inhibition in vitro, AA8; format: cell-based, Chinese hamster
# Description: as §1, §2
# S. typhimurium TA98 = assay: Bacterial mutagenicity, plate incorporation assay, TA98; conditions: mean ± SD
# AA8 and UV4 cells = assay: Hypersensitivity factor (AA8/UV4 IC50 ratio); format: cell-based, Chinese hamster; conditions: ratio of IC50s AA8/UV4
# Description: as §1, §2
# [2] = test system: Saccharomyces cerevisiae strain D5
# S. typhimurium TA100 = assay: Bacterial mutagenicity, plate incorporation assay, TA100; conditions: for reversion colonies, TA100: mean ± SD
# S. typhimurium TA102 = assay: Bacterial mutagenicity, plate incorporation assay, TA102; conditions: mean ± SD
# P338 murine leukaemia = format: in vivo, mice
# calf thymus DNA [3] = assay: Reversible DNA binding by spectrophotometric Scatchard analysis; conditions: 20° C., 0.01M HEPES buffer, pH 7.00
# S. typhimurium strains = conditions: overall
# DNA minor groove = conditions: background; cited from earlier work
# solid tumour lines = conditions: other studies; cited from earlier work
# L1210 leukemia = conditions: repeated dose schedule; cited from earlier work
# [4] = 80 μg/plate, square brackets: toxicity becoming apparent
# [5] = 120 μg/plate, square brackets: toxicity becoming apparent
# [6] = 40 μg/plate, square brackets: toxicity becoming apparent
Compound,"reversion colonies, TA98 (S. typhimurium TA98; 4 μg/plate)","reversion colonies, TA98 (S. typhimurium TA98; 10 μg/plate)","reversion colonies, TA98 (S. typhimurium TA98; 20 μg/plate)","reversion colonies, TA98 (S. typhimurium TA98; 40 μg/plate)","reversion colonies, TA98 (S. typhimurium TA98; [4])",Hypersensitivity factor (AA8 and UV4 cells),"reversion colonies, TA100 (S. typhimurium TA100; 4 μg/plate)","reversion colonies, TA100 (S. typhimurium TA100; 10 μg/plate)","reversion colonies, TA100 (S. typhimurium TA100; 20 μg/plate)","reversion colonies, TA100 (S. typhimurium TA100; 40 μg/plate)","reversion colonies, TA100 (S. typhimurium TA100; 80 μg/plate)","reversion colonies, TA102 (S. typhimurium TA102; 4 μg/plate)","reversion colonies, TA102 (S. typhimurium TA102; 10 μg/plate)","reversion colonies, TA102 (S. typhimurium TA102; 20 μg/plate)","reversion colonies, TA102 (S. typhimurium TA102; [6])","reversion colonies, TA102 (S. typhimurium TA102; [4])",Site size (Number of nucleotide residues) (calf thymus DNA [3]) [nucleotide residues],further results
"CN1CCN(c2ccc3nc(-c4ccc5nc(CCCCCCc6ccc(N(CCCl)CCCl)cc6)[nH]c5c4)[nH]c3c2)CC1 [Compound 6, 2-[2-[6-[4-(N,N-bis(2-chloroethyl)amino)phenyl]hexyl]-5-benzimidazolyl]-5-(1-methyl-4-piperazinyl)benzimidazole]",65 ± 10,69 ± 7,68 ± 8,69 ± 9,96 ± 5,20,160 ± 13,136 ± 0,156 ± 29,144 ± 10,142 ± 10,271 ± 31,386 ± 10,342 ± 14,372 ± 19,336 ± 19,2.4,"IC50 (P388 cells): 0.06 µM; Cross-linking (linearized pSV2gpt DNA): Yes and crosslinked DNA; Rate constant for alkylation (calf thymus DNA [1]): 9.64 × 10^4; IC50 (AA8 cells; AA8 cells, 18 h exposure, then 72 h growth, methylene blue, read-out: IC50): 0.4 µM; reversion colonies, TA98 (S. typhimurium TA98; [5]): 75 ± 3; petite (mitochondrial) mutagenesis ([2]; yeast strain D5, in words): showed activity, albeit weak; reversion colonies, TA100 (S. typhimurium TA100; [5]): 157 ± 14; reversion colonies, TA102 (S. typhimurium TA102; [5]): 353 ± 34; Optimal dose (P338 murine leukaemia; single i.p. dose): 8.9 mg/kg; % Increase in lifespan (P338 murine leukaemia; single i.p. dose 24 h after tumour inoculation, at optimal dose (mg/kg: 1 30; 2 30; 3 13.3; 4 3.9; 5 5.9; 6 8.9)): 23%; bacterial mutagenicity (S. typhimurium strains): lower bacterial mutagenicity"
"CN1CCN(c2ccc3nc(-c4ccc5nc(-c6ccc(O)cc6)[nH]c5c4)[nH]c3c2)CC1 [Pibenzimol, reference compound]",59 ± 3,64 ± 8,55 ± 6,61 ± 5,62 ± 9,about unity,188 ± 11,191 ± 7,179 ± 6,168 ± 13,178 ± 11,275 ± 12,277 ± 1,301 ± 3,377 ± 49,397 ± 10,2.4,"IC50 (P388 cells; Mus musculus): ~1 µM; binding to DNA minor groove (DNA minor groove): binds to regions of the minor groove rich in adenine and thymine bases; cytotoxicity in solid tumour lines (solid tumour lines): very low cytotoxicity; activity against the AA8 cell line (AA8 cells; compared with P388, shorter exposure time): much less active; in vivo activity against L1210 leukemia (L1210 leukemia): moderate in vivo activity; petite (mitochondrial) mutagenesis [2]: not active in this system; mutagenicity in TA100 (S. typhimurium TA100; statistical analysis): no statistically significant mutagenic response in TA100; in vivo antitumour activity (P338 murine leukaemia; P388, single-dose protocol): not active against P388 using the single-dose protocol"
